Data published in US8044079B2, “Substituted oxindole derivatives, medicaments containing said derivatives and use thereof” (Abbott GmbH & Co. KG, priority 2005, dated 2011).

target: T1, human vasopressin V1b receptor (Homo sapiens, UniProt P47901); test: Vasopressin V1b receptor binding test; settings: membranes of CHO-K1 cells with human V1b receptor, displacement of 1.5 nM 3H-AVP; for compounds with more than one stereogenic center the diastereomer with greater affinity
T1 construct: expressed in transfected cells; host or cells: CHO-K1 (cell line hV1b_3H2_CHO), membrane preparation
T1 sequence (P47901 1-424): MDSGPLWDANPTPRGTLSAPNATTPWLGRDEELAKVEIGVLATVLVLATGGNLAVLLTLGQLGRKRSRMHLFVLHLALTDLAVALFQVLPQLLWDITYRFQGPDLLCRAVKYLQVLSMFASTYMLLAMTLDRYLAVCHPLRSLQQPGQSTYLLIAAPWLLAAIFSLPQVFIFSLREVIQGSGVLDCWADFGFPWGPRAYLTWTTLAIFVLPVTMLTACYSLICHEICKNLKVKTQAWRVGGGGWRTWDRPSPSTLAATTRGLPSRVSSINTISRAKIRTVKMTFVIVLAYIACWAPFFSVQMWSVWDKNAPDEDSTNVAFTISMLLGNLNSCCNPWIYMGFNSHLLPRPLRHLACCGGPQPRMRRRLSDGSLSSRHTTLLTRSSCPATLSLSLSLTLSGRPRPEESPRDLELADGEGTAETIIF
Outline: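 Affinity constants (Ki) came from nonlinear regression of triplicate scintillation counts after filtration separated bound from free radioligand. Compounds competed at human V1b membranes for 60 min, room temperature, in pH 7.4 tris/MgCl2/BSA buffer with 2% DMSO; 1 μM AVP defined nonspecific binding.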

Row | Structure (SMILES) | Ki [µM]
1 | CCN1CCN(Cc2ccc(C3(N4C[C@H](O)C[C@H]4c4ncco4)C(=O)N(S(=O)(=O)c4ccc(C#N)cc4)c4ccc(Cl)cc43)c(OC)c2)CC1 (stereo partly drawn) [Example 181, 5-Chloro-3-[4-(4-ethylpiperazin-1-ylmethyl)-2-methoxyphenyl]-3-((2S,4R)-4-hydroxy-2-oxazol-2-yl-pyrrolidin-1-yl)-1-(4-cyanobenzenesulfonyl)-1,3-dihydroindol-2-one] | < 0.01
2 | COc1cc(CN(C)C)ccc1C1(N2C[C@H](O)C[C@H]2c2ncco2)C(=O)N(S(=O)(=O)c2ccc(C#N)cc2)c2ccc(Cl)cc21 (stereo partly drawn) [Example 182, 5-Chloro-3-(4-dimethylaminomethyl-2-methoxyphenyl)-3-((2S,4R)-4-hydroxy-2-oxazol-2-yl-pyrrolidin-1-yl)-1-(4-cyanobenzenesulfonyl)-1,3-dihydroindol-2-one] | 0.01 to 0.1
3 | COc1cc(CN2CCCC2)ccc1C1(N2C[C@H](O)C[C@H]2c2ncco2)C(=O)N(S(=O)(=O)c2ccc(C#N)cc2)c2ccc(Cl)cc21 (stereo partly drawn) [Example 183, 5-Chloro-3-((2S,4R)-4-hydroxy-2-oxazol-2-yl-pyrrolidin-1-yl)-3-(2-methoxy-4-(pyrrolidin-1-ylmethyl)phenyl)-1-(4-cyanobenzenesulfonyl)-1,3-dihydroindol-2-one] | 0.01 to 0.1
4 | CCNCc1ccc(C2(N3C[C@H](O)C[C@H]3c3ncco3)C(=O)N(S(=O)(=O)c3ccc(C#N)cc3)c3ccc(Cl)cc32)c(OC)c1 (stereo partly drawn) [Example 189, 5-Chloro-3-(4-ethylaminomethyl-2-methoxyphenyl)-3-((2S,4R)-4-hydroxy-2-oxazol-2-yl-pyrrolidin-1-yl)-1-(4-cyanobenzenesulfonyl)-1,3-dihydroindol-2 one] | 0.01 to 0.1
5 | CNCc1ccc(C2(N3C[C@H](O)C[C@H]3c3ncco3)C(=O)N(S(=O)(=O)c3ccc(C#N)cc3)c3ccc(Cl)cc32)c(OC)c1 (stereo partly drawn) [Example 190, 5-Chloro-3-((2S,4R)-4-hydroxy-2-oxazol-2-yl-pyrrolidin-1-yl)-3-(2-methoxy-4-methylaminomethylphenyl)-1-(4-cyanobenzenesulfonyl)-1,3-dihydroindol-2 one] | 0.01 to 0.1
6 | COc1ccc(S(=O)(=O)N2C(=O)C(c3cc(CN4CCC(O)CC4)ccc3OC)(N3CCC[C@H]3c3ncco3)c3cc(C#N)ccc32)cc1 (stereo partly drawn) [Example 191, 5-Cyano-3-[5-(4-hydroxypiperidin-1-ylmethyl)-2-methoxyphenyl]-1-(4-methoxybenzenesulfonyl)-3-((S)-2-oxazol-2-yl-pyrrolidin-1-yl)-1,3-dihydroindol-2-one] | < 0.01
7 | CCN1CCN(Cc2ccc(C3(N4CCC[C@H]4c4ncco4)C(=O)N(S(=O)(=O)c4ccc(OC)cc4)c4cc(F)c(Cl)cc43)c(OC)c2)CC1 (stereo partly drawn) [Example 193, 5-Chloro-3-[4-(4-ethylpiperazin-1-ylmethyl)-2-methoxyphenyl]-6-fluoro-1-(4-methoxybenzenesulfonyl)-3-((S)-2-oxazol-2-yl-pyrrolidin-1-yl)-1,3-dihydroindol-2-one] | < 0.01
8 | COc1ccc(S(=O)(=O)N2C(=O)C(c3cccc(CN(C)C)c3OC)(N3CCC[C@H]3c3ncco3)c3cc(Cl)ccc32)cc1 (stereo partly drawn) [Example 194, 5-Chloro-3-(3-dimethylaminomethyl-2-methoxyphenyl)-1-(4-methoxybenzenesulfonyl)-3-((S)-2-oxazol-2-yl-pyrrolidin-1-yl)-1,3-dihydroindol-2-one] | 0.01 to 0.1
9 | COc1ccc(S(=O)(=O)N2C(=O)C(c3cccc(CN4CCCC4)c3OC)(N3CCC[C@H]3c3ncco3)c3cc(Cl)ccc32)cc1 (stereo partly drawn) [Example 195, 5-Chloro-1-(4-methoxybenzenesulfonyl)-3-(2-methoxy-3-pyrrolidin-1-ylmethylphenyl)-3-((S)-2-oxazol-2-yl-pyrrolidin-1-yl)-1,3-dihydroindol-2-one] | 0.1 to 1
10 | COc1cc(CN2CCN(CCO)CC2)ccc1C1(N2CCC[C@H]2c2ncco2)C(=O)N(S(=O)(=O)c2ccc(C#N)cc2)c2ccc(Cl)cc21 (stereo partly drawn) [Example 197, 5-Chloro-1-(4-cyanobenzenesulfonyl)-3-{4-[4-(2-hydroxyethyl)piperazin-1-ylmethyl]-2-methoxyphenyl}-3-((S)-2-oxazol-2-yl-pyrrolidin-1-yl)-2,3-dihydroindol-2-one] | 0.01 to 0.1
11 | CCN1CCN(Cc2ccc(C3(N4CCC[C@H]4c4ncco4)C(=O)N(S(=O)(=O)c4ccc(OC)cc4)c4ccc(Cl)c(F)c43)c(OC)c2)CC1 (stereo partly drawn) [Example 199, 5-Chloro-3-[4-(4-ethylpiperazin-1-ylmethyl)-2-methoxyphenyl]-4-fluoro-1-(4-methoxybenzenesulfonyl)-3-((S)-2-oxazol-2-yl-pyrrolidin-1-yl)-1,3-dihydroindol-2-one] | < 0.01
12 | COc1ccc(S(=O)(=O)N2C(=O)C(c3cc(CN4CCNCC4)ccc3OC)(N3CCC[C@H]3c3ncco3)c3cc(Cl)c(F)cc32)cc1 (stereo partly drawn) [Example 200, 5-Chloro-6-fluoro-1-(4-methoxybenzenesulfonyl)-3-(2-methoxy-5-piperazin-1-ylmethylphenyl)-3-((S)-2-oxazol-2-yl-pyrrolidin-1-yl)-1,3-dihydroindol-2-one] | < 0.01
13 | CCOc1ccc(CNC)cc1C1(N2CCC[C@H]2c2ncco2)C(=O)N(S(=O)(=O)c2ccc(OC)cc2)c2ccc(Cl)cc21 (stereo partly drawn) [Example 203, 5-Chloro-3-(2-ethoxy-5-methylaminomethylphenyl)-1-(4-methoxybenzenesulfonyl)-3-((S)-2-oxazol-2-yl-pyrrolidin-1-yl)-1,3-dihydroindol-2-one] | 0.01 to 0.1

Second part, the compound after the results:

Row | Ki [µM] | Structure (SMILES)
14 | < 0.01 | COc1ccc(S(=O)(=O)N2C(=O)C(c3cc(CN4CCN(C)CC4)cc4c3OCO4)(N3CCC[C@H]3c3ncco3)c3cc(Cl)ccc32)cc1 (stereo partly drawn) [Example 184, 5-Chloro-1-(4-methoxybenzenesulfonyl)-3-[6-(4-methylpiperazin-1-ylmethyl)benzo[1,3]dioxol-4-yl]-3-((S)-2-oxazol-2-yl-pyrrolidin-1-yl)-1,3-dihydroindol-2-one]
15 | 0.01 to 0.1 | CNCc1cc2c(c(C3(N4CCC[C@H]4c4ncco4)C(=O)N(S(=O)(=O)c4ccc(OC)cc4)c4ccc(Cl)cc43)c1)OCO2 (stereo partly drawn) [Example 185, 5-Chloro-1-(4-methoxybenzenesulfonyl)-3-(6-methylaminomethylbenzo[1,3]dioxol-4-yl)-3-((S)-2-oxazol-2-yl-pyrrolidin-1-yl)-1,3-dihydroindol-2-one]
16 | 0.01 to 0.1 | COc1ccc(S(=O)(=O)N2C(=O)C(c3cc(CN(C)C)cc4c3OCO4)(N3CCC[C@H]3c3ncco3)c3cc(Cl)ccc32)cc1 (stereo partly drawn) [Example 186, 5-Chloro-3-(6-dimethylaminomethylbenzo[1,3]dioxol-4-yl)-1-(4-methoxybenzenesulfonyl)-3-((S)-2-oxazol-2-yl-pyrrolidin-1-yl)-1,3-dihydroindol-2-one]
17 | < 0.01 | COc1ccc(S(=O)(=O)N2C(=O)C(c3cc(CNC(C)C)cc4c3OCO4)(N3CCC[C@H]3c3ncco3)c3cc(Cl)ccc32)cc1 (stereo partly drawn) [Example 187, 5-Chloro-3-[6-(isopropylaminomethyl)benzo[1,3]dioxol-4-yl]-1-(4-methoxybenzenesulfonyl)-3-((S)-2-oxazol-2-yl-pyrrolidin-1-yl)-1,3-dihydroindol-2-one]
18 | < 0.01 | CCNCc1cc2c(c(C3(N4CCC[C@H]4c4ncco4)C(=O)N(S(=O)(=O)c4ccc(OC)cc4)c4ccc(Cl)cc43)c1)OCO2 (stereo partly drawn) [Example 188, 5-Chloro-3-(6-ethylaminomethylbenzo[1,3]dioxol-4-yl)-1-(4-methoxybenzenesulfonyl)-3-((S)-2-oxazol-2-yl-pyrrolidin-1-yl)-1,3-dihydroindol-2-one]
19 | < 0.01 | COc1ccc(S(=O)(=O)N2C(=O)C(c3cccc(CN4CCN(C)CC4)c3OC)(N3CCC[C@H]3c3ncco3)c3cc(Cl)ccc32)cc1 (stereo partly drawn) [Example 192, 5-Chloro-1-(4-methoxybenzenesulfonyl)-3-[2-methoxy-3-(4-methylpiperazin-1-ylmethyl)phenyl]-3-((S)-2-oxazol-2-yl-pyrrolidin-1-yl)-1,3-dihydroindol-2-one]
20 | < 0.01 | COc1ccc(S(=O)(=O)N2C(=O)C(c3cc(CN4CCN(C)CC4)ccc3OC)(N3CCC[C@H]3c3ncco3)c3cc(Cl)c(F)cc32)cc1 (stereo partly drawn) [Example 198, 5-Chloro-6-fluoro-1-(4-methoxybenzenesulfonyl)-3-[2-methoxy-5-(4-methylpiperazin-1-ylmethyl)phenyl]-3-((S)-2-oxazol-2-yl-pyrrolidin-1-yl)-1,3-dihydroindol-2-one]
21 | < 0.01 | COc1ccc(S(=O)(=O)N2C(=O)C(c3ccc(CN4CCN(C)CC4)cc3OC)(N3CCC[C@H]3c3ncco3)c3cc(Cl)c(F)cc32)cc1 (stereo partly drawn) [Example 201, 5-Chloro-6-fluoro-1-(4-methoxybenzenesulfonyl)-3-[2-methoxy-4-(4-methylpiperazin-1-ylmethyl)phenyl]-3-((S)-2-oxazol-2-yl-pyrrolidin-1-yl)-1,3-dihydroindol-2-one]
22 | 0.01 to 0.1 | CCOc1ccc(CN2CCN(C)CC2)cc1C1(N2CCC[C@H]2c2ncco2)C(=O)N(S(=O)(=O)c2ccc(OC)cc2)c2ccc(Cl)cc21 (stereo partly drawn) [Example 202, 5-Chloro-3-[2-ethoxy-5-(4-methylpiperazin-1-ylmethyl)phenyl]-1-(4-methoxybenzenesulfonyl)-3-((S)-2-oxazol-2-yl-pyrrolidin-1-yl)-1,3-dihydroindol-2-one]
